Experimental data published in paper PMC2229105 (The Journal of General Physiology, 1992).
Like-named read-outs stand apart in the source and are kept apart here.

Tests used:
[1] = tested on: T-type Ca channels (guinea pig atrial cells); assay: whole-cell patch clamp, tail current analysis, modulated receptor theory; type: cell-based, Cavia porcellus; details: read-out: KI, inactivated state (apparent)
[2] = tested on: T-type Ca channels in GH3 cells; assay: as above; type: cell-based, Rattus norvegicus; details: read-out: KI; inactivated state (apparent); six experiments

## CC1=C(C(=O)OC(C)C)[C@@H](c2cccc3nonc23)C([N+](=O)[O-])=C(C)N1 [(-)-(R)-202-791]
[1]; 30-s prepulse
  Kd: 15.3 nM

## CC(C)COCC(CN(Cc1ccccc1)c1ccccc1)N1CCCC1 (stereo not shown) [bepridil]
[1]; from block by 0.5 µM drug
  Kd: 1240 nM

## CCOC(=O)C1=C(C)NC(C)=C(C(=O)OC)C1c1cccc(Cl)c1Cl (stereo not shown) [felodipine]
[2]
  Kd: 680 ± 220 nM

## COC(=O)C1=C(C)NC(C)=C(C(=O)OC(C)C)C1c1cccc2nonc12 (stereo not shown) [isradipine]
[1]; 30-s prepulse
  Kd: 20.4 nM
